Values quoted from earlier work as cited in patent US5543414A, “Achiral amino acid acyl esters of ganciclovir and its derivatives” (priority 1994, dated 1996).
Counter-ions that a name gives are not always drawn. Like-named read-outs stand apart in the source and are kept apart here.

How the values were obtained:
[1] = not given; remark: listed apart in the source
[2] = in vivo
[3] = tested on: epithelial and stromal herpes simplex keratitis and associated iritis; settings: glycine ester: 1% eye drop formulation, rabbits; acyclovir: ointment
[4] = tested on: viruses of the herpes family; settings: e.g. herpes simplex, cytomegalovirus
[5] = not given; remark: listed apart in the source
[6] = oral administration
[7] = not given; remark: listed apart in the source
[8] = tested on: herpes simplex virus type 1 and type 2 strains; settings: primary rabbit kidney cell cultures
[9] = not given; remark: listed apart in the source

Q: Which “amounts of the parent drug in the urine compared with acyclovir” value (from here on “amounts … compared with acyclovir”) (rat, in vivo) does the source give for CC[C@H](N)C(=O)OCCOCn1cnc2c(=O)[nH]c(N)nc21 here?
A: greater amounts of the parent drug in the urine than acyclovir itself

Q: For CC(N)C(=O)OCCOCn1cnc2c(=O)[nH]c(N)nc21 (racemic) [D,L-alanyl], which “amounts … compared with acyclovir” value (rat, in vivo) is on record?
A: greater amounts of the parent drug in the urine than acyclovir itself

Q: With CC(C)C(N)C(=O)OCCOCn1cnc2c(=O)nc(N)[nH]c21 (racemic) [D,L-valyl] as the compound, how does the “amounts … compared with acyclovir” value (rat, in vivo) read?
A: greater amounts of the parent drug in the urine than acyclovir itself

Q: With CCC(C)C(N)C(=O)OCCOCn1cnc2c(=O)[nH]c(N)nc21 (racemic) [DL-isoleucyl] as the compound, how does the “amounts … compared with acyclovir” value (rats) read?
A: greater amounts of the parent drug in the urine than acyclovir itself

Q: Which “absorption and plasma levels of the parent drugs” value ([1]; oral administration, rats) does the source give for Nc1ncc2ncn(COCCO)c2n1 [6-deoxy-acyclovir] here?
A: efficient absorption from the gastro-intestinal tract and high plasma levels of the parent drugs

Q: And the “conversion to parent drug” value [2]?
A: readily converted in vivo by the action of enzymes

Q: For Nc1ncc2ncn(COC(CO)CO)c2n1 [6-deoxy-ganciclovir], which “absorption and plasma levels of the parent drugs” value ([1]; rat, in vivo, po) is on record?
A: efficient absorption from the gastro-intestinal tract and high plasma levels of the parent drugs

Q: What about the “conversion to parent drug” value [2] of the same compound?
A: readily converted in vivo by the action of enzymes

Q: Which “amounts … compared with acyclovir” value (rat, in vivo) does the source give for C[C@H](N)C(=O)OCCOCn1cnc2c(=O)[nH]c(N)nc21 [L-alanyl] here?
A: greater amounts of the parent drug in the urine than acyclovir itself

Q: For CC[C@H](C)[C@H](N)C(=O)OCCOCn1cnc2c(=O)[nH]c(N)nc21 [L-isoleucyl], which “amounts … compared with acyclovir” value (rat, in vivo) is on record?
A: greater amounts of the parent drug in the urine than acyclovir itself

Q: With CSCC[C@H](N)C(=O)OCCOCn1cnc2c(=O)[nH]c(N)nc21 [L-methionyl] as the compound, how does the “amounts … compared with acyclovir” value (rat, in vivo) read?
A: greater amounts of the parent drug in the urine than acyclovir itself

Q: Which “amounts … compared with acyclovir” value (rat, in vivo) does the source give for Nc1nc2c(ncn2COCCOC(=O)[C@@H]2CCCN2)c(=O)[nH]1 [L-prolyl ester] here?
A: greater amounts of the parent drug in the urine than acyclovir itself

Q: Which “amounts … compared with acyclovir” value (rats) does the source give for CC(C)[C@H](N)C(=O)OCCOCn1cnc2c(=O)[nH]c(N)nc21 [L-valyl ester of acyclovir] here?
A: greater amounts of the parent drug in the urine than acyclovir itself

Q: What about the “ranking as prodrug of acyclovir” value (rats) of the same compound?
A: the best prodrug of the esters investigated

Q: Which “efficacy in topical treatment of herpes simplex keratitis and iritis” value [3] does the source give for Nc1nc2c(ncn2COCCO)c(=O)[nH]1 [acyclovir, 2-(2-amino-1,6-dihydro-6-oxo-1,6-dihydro-purin-9-yl)methoxy-ethanol] here?
A: hardly effective in stromal disease or iritis

Q: What about the antiviral activity [4] of the same compound?
A: good activity against herpes viruses such as herpes simplex

Q: And the water solubility [5]?
A: limited solubility in water

Q: What about the “urinary recovery of acyclovir” value (rat, in vivo, po) of the same compound?
A: 19%

Q: For CCC(=O)OCC(COC(=O)CC)OCn1cnc2c(=O)[nH]c(N)nc21 [dipropionate ester], which “more bioavailable than ganciclovir itself” value [6] is on record?
A: about 42%

Q: For Nc1nc2c(ncn2COC(CO)CO)c(=O)[nH]1 [ganciclovir, 9-[(2-hydroxy-1-hydroxymethyl-ethoxy)methyl]-guanine], which antiviral activity [4] is on record?
A: highly efficacious against viruses of the herpes family, for example, against herpes simplex and cytomegalovirus

Q: With NCC(=O)OCCOCn1cnc2c(=O)[nH]c(N)nc21 [glycyl ester of acyclovir] as the compound, how does the “solubility greater than the solubility of acyclovir itself” value [7] read?
A: about 30 fold

Q: And the “efficacy in topical treatment of herpes simplex keratitis and iritis” value [3]?
A: efficacious in the topical treatment of epithelial and stromal herpes simplex keratitis and associated iritis

Q: What about the “amounts … compared with acyclovir” value (rats) of the same compound?
A: greater amounts of the parent drug in the urine than acyclovir itself

Q: With CC(N)C(=O)OCCOCn1cnc2c(=O)[nH]c(N)nc21 (centres unmarked) [hydrochloride salt of the alanyl ester] as the compound, how does the “activity against herpes simplex virus type 1 and type 2 compared with acyclovir” value (“activity … compared with acyclovir” for short) [8] read?
A: almost as active as acyclovir itself

Q: For NCC(=O)OCCOCn1cnc2c(=O)[nH]c(N)nc21 [hydrochloride salt of the glycyl ester], which “activity … compared with acyclovir” value [8] is on record?
A: almost as active as acyclovir itself

Q: For NCCC(=O)OCCOCn1cnc2c(=O)[nH]c(N)nc21 [hydrochloride salt of the β-alanyl ester], which “activity … compared with acyclovir” value [8] is on record?
A: almost as active as acyclovir itself

Q: For CCC(C)C(N)C(=O)OCCOCn1cnc2c(=O)[nH]c(N)nc21 (centres unmarked) [isoleucine ester of acyclovir], which “absorption from the gut compared with other esters and acyclovir” value ([9]; oral administration, preferably in the L-form) is on record?
A: large increase in absorption from the gut after oral administration

Q: With Nc1nc2c(ncn2COCCOC(=O)CCC(=O)O)c(=O)[nH]1 [sodium salt of the succinyl ester] as the compound, how does the “activity … compared with acyclovir” value [8] read?
A: almost as active as acyclovir itself

Q: For CC(C)[C@H](N)C(=O)OCCOCn1cnc2c(=O)nc(N)[nH]c21 [valine ester of acyclovir], which “absorption from the gut compared with other esters and acyclovir” value ([9]; in vivo, po) is on record?
A: large increase in absorption from the gut after oral administration
